Data reported in ChEMBL document CHEMBL3885881, “DrugMatrix”.

Organism: Rattus norvegicus
Assay: DrugMatrix - Regimen: Daily Repeat
Format: toxicity, organism-based, Sprague-Dawley
Design: regimen Daily Repeat, gender Male, age 6-8 weeks
Settings: in vivo, po, route oral GAVAGE, vehicle 100 % WATER; for ABSOLUTE BASOPHIL / ABSOLUTE EOSINOPHIL / ABSOLUTE LYMPHOCYTE / ABSOLUTE MONOCYTE / ABSOLUTE SEGMENTED NEUTROPHIL / BASOPHIL / EOSINOPHIL / ERYTHROCYTE COUNT / HEMATOCRIT / HEMOGLOBIN / LEUKOCYTE COUNT / LYMPHOCYTE / MEAN CORPUSCULAR HEMOGLOBIN / MEAN CORPUSCULAR HEMOGLOBIN CONCENTRATION / MEAN CORPUSCULAR VOLUME / MONOCYTE / NEUTROPHIL / NUCLEATED RED BLOOD CELLS / PLATELET COUNT: tissue Blood; for ALANINE AMINOTRANSFERASE / ALBUMIN / ALKALINE PHOSPHATASE / ASPARTATE AMINOTRANSFERASE / BLOOD UREA NITROGEN / CARBON DIOXIDE / CHLORIDE / CHOLESTEROL / CREATINE PHOSPHOKINASE / CREATININE / GLUCOSE / LACTATE DEHYDROGENASE / LIPASE / PHOSPHORUS / SODIUM / TOTAL BILIRUBIN / TOTAL PROTEIN / URIC ACID: tissue Plasma
[1] = 0 mg/kg, 72 h, dose level Control, time 3 day
[2] = 0 mg/kg, 120 h, dose level Control, time 5 day
[3] = 200 mg/kg, 72 h, dose level Low, time 3 day

## CC1(C)S[C@@H]2[C@H](NC(=O)[C@H](N)c3ccc(O)cc3)C(=O)N2[C@H]1C(=O)O [AMOXICILLIN]
[1]
  ABSOLUTE BASOPHIL: 0 CELLS/uL
  ABSOLUTE EOSINOPHIL: 25 CELLS/uL
  ABSOLUTE LYMPHOCYTE: 14357 CELLS/uL
  ABSOLUTE MONOCYTE: 456.33 CELLS/uL
  ABSOLUTE SEGMENTED NEUTROPHIL: 1461.67 CELLS/uL
  BASOPHIL: 0%
  EOSINOPHIL: 0.17%
  ERYTHROCYTE COUNT: 5.85 x10E6/uL
  HEMATOCRIT: 37.62%
  HEMOGLOBIN: 13.87 G/DL
  LEUKOCYTE COUNT: 16.3 x10E3/uL
  LYMPHOCYTE: 88%
  MEAN CORPUSCULAR HEMOGLOBIN: 23.68 pg
  MEAN CORPUSCULAR HEMOGLOBIN CONCENTRATION: 36.88 G/DL
  MEAN CORPUSCULAR VOLUME: 64.23 fL
  MONOCYTE: 2.83%
  NEUTROPHIL: 9%
  NUCLEATED RED BLOOD CELLS: 0 /100WBC
  PLATELET COUNT: 1125.33 x10E3/uL
  ALANINE AMINOTRANSFERASE: 49.67 u/L
  ALBUMIN: 4.23 G/DL
  ALKALINE PHOSPHATASE: 400.83 u/L
  ASPARTATE AMINOTRANSFERASE: 89.17 u/L
  BLOOD UREA NITROGEN: 16 mg/dL
  CARBON DIOXIDE: 31.83 mmol/L
  CHLORIDE: 99 MEQ/L
  CHOLESTEROL: 76 mg/dL
  CREATINE PHOSPHOKINASE: 777.67 u/L
  CREATININE: 0.22 mg/dL
  GLUCOSE: 158.33 mg/dL
  LACTATE DEHYDROGENASE: 186.17 u/L
  LIPASE: 9.33 u/L
  PHOSPHORUS: 12.95 mg/dL
  SODIUM: 141.53 MEQ/L
  TOTAL BILIRUBIN: 0.18 mg/dL
  TOTAL PROTEIN: 6.08 G/DL
  URIC ACID: 1.77 mg/dL
[2]
  ABSOLUTE BASOPHIL: 0 CELLS/uL
  ABSOLUTE EOSINOPHIL: 0 CELLS/uL
  ABSOLUTE LYMPHOCYTE: 8994.5 CELLS/uL
  ABSOLUTE MONOCYTE: 122.33 CELLS/uL
  ABSOLUTE SEGMENTED NEUTROPHIL: 666.5 CELLS/uL
  BASOPHIL: 0%
  EOSINOPHIL: 0%
  ERYTHROCYTE COUNT: 5.74 x10E6/uL
  HEMATOCRIT: 35.17%
  HEMOGLOBIN: 13.28 G/DL
  LEUKOCYTE COUNT: 9.78 x10E3/uL
  LYMPHOCYTE: 92.33%
  MEAN CORPUSCULAR HEMOGLOBIN: 23.15 pg
  MEAN CORPUSCULAR HEMOGLOBIN CONCENTRATION: 37.8 G/DL
  MEAN CORPUSCULAR VOLUME: 61.27 fL
  MONOCYTE: 1.33%
  NEUTROPHIL: 6.33%
  NUCLEATED RED BLOOD CELLS: 0 /100WBC
  PLATELET COUNT: 1117 x10E3/uL
  ALANINE AMINOTRANSFERASE: 47.83 u/L
  ALBUMIN: 4.33 G/DL
  ALKALINE PHOSPHATASE: 414.5 u/L
  ASPARTATE AMINOTRANSFERASE: 77.5 u/L
  BLOOD UREA NITROGEN: 17 mg/dL
  CARBON DIOXIDE: 32.33 mmol/L
  CHLORIDE: 99.33 MEQ/L
  CHOLESTEROL: 76.33 mg/dL
  CREATINE PHOSPHOKINASE: 363.67 u/L
  CREATININE: 0.25 mg/dL
  GLUCOSE: 173.5 mg/dL
  LACTATE DEHYDROGENASE: 129.33 u/L
  LIPASE: 9.17 u/L
  PHOSPHORUS: 11.52 mg/dL
  SODIUM: 143.85 MEQ/L
  TOTAL BILIRUBIN: 0.2 mg/dL
  TOTAL PROTEIN: 6.43 G/DL
  URIC ACID: 0.97 mg/dL
[3]
  ABSOLUTE BASOPHIL: 0 CELLS/uL
  ABSOLUTE EOSINOPHIL: 109.67 CELLS/uL
  ABSOLUTE LYMPHOCYTE: 14631 CELLS/uL
  ABSOLUTE MONOCYTE: 211.33 CELLS/uL
  ABSOLUTE SEGMENTED NEUTROPHIL: 914.67 CELLS/uL
  BASOPHIL: 0%
  EOSINOPHIL: 0.67%
  ERYTHROCYTE COUNT: 5.96 x10E6/uL
  HEMATOCRIT: 38.03%
  HEMOGLOBIN: 14 G/DL
  LEUKOCYTE COUNT: 15.87 x10E3/uL
  LYMPHOCYTE: 92.33%
  MEAN CORPUSCULAR HEMOGLOBIN: 23.53 pg
  MEAN CORPUSCULAR HEMOGLOBIN CONCENTRATION: 36.8 G/DL
  MEAN CORPUSCULAR VOLUME: 63.87 fL
  MONOCYTE: 1.33%
  NEUTROPHIL: 5.67%
  NUCLEATED RED BLOOD CELLS: 0 /100WBC
  PLATELET COUNT: 1509.33 x10E3/uL
  ALANINE AMINOTRANSFERASE: 49.33 u/L
  ALBUMIN: 4.4 G/DL
  ALKALINE PHOSPHATASE: 350 u/L
  ASPARTATE AMINOTRANSFERASE: 82.33 u/L
  BLOOD UREA NITROGEN: 15.33 mg/dL
  CARBON DIOXIDE: 31.33 mmol/L
  CHLORIDE: 99.33 MEQ/L
  CHOLESTEROL: 96.33 mg/dL
  CREATINE PHOSPHOKINASE: 449.67 u/L
  CREATININE: 0.21 mg/dL
  GLUCOSE: 146 mg/dL
  LACTATE DEHYDROGENASE: 163.67 u/L
  LIPASE: 10.33 u/L
  PHOSPHORUS: 11.9 mg/dL
  SODIUM: 142.1 MEQ/L
  TOTAL BILIRUBIN: 0.2 mg/dL
  TOTAL PROTEIN: 6.37 G/DL
  URIC ACID: 2.03 mg/dL
